Experiments:
[1] = molecular target: T1, Acetylcholinesterase (Mus musculus, UniProt P21836); assay: Inhibition of AChE in Swiss Webster mouse cerebral homogenate using acetylthiocholine iodide as substrate preincubated for 10 mins followed substrate addition measured after 10 mins by Ellman's method
T1 sequence (P21836 whole entry): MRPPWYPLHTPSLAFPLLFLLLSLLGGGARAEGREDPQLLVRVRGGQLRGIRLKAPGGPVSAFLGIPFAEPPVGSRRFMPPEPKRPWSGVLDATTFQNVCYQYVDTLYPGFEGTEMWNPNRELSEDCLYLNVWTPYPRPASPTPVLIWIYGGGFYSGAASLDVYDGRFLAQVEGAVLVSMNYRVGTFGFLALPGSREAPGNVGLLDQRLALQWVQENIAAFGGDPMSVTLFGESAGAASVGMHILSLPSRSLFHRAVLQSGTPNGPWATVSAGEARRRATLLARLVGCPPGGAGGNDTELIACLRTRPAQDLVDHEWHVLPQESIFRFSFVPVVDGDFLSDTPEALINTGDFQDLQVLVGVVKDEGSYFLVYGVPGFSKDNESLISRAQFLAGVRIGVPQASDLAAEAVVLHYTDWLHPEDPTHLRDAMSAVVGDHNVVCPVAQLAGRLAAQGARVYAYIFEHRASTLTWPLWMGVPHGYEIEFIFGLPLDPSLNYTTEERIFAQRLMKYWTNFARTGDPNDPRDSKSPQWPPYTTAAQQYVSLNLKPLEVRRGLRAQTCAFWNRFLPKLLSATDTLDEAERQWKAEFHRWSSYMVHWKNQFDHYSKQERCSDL

[2] = molecular target: Cholinesterase (Mus musculus, UniProt Q03311); assay: Inhibition of BuChE in Swiss Webster mouse whole blood serum using butyrylthiocholine iodide as substrate preincubated for 10 mins followed substrate addition measured after 10 mins by Ellman's method
Chain of Cholinesterase (Q03311 whole entry): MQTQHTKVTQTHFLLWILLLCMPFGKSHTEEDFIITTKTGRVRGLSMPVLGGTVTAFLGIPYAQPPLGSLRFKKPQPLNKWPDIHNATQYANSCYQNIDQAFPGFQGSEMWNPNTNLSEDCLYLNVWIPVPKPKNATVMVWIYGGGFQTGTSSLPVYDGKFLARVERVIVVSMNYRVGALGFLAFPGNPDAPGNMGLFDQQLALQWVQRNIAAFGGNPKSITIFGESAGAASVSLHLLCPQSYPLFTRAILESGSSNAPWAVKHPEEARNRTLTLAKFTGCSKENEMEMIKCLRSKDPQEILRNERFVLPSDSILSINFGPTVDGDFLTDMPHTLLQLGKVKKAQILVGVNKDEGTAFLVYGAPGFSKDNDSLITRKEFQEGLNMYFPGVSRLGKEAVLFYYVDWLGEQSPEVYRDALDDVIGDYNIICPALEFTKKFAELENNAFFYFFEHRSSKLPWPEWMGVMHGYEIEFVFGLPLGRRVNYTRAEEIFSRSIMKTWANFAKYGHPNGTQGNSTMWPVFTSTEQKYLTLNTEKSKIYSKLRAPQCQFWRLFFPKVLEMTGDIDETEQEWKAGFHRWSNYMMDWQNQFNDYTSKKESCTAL

Compound	IC50 [1] [nM]	IC50 [2] [nM]
CC1(C)O[C@H]2O[C@H](CNCCCCCCCNc3c4c(nc5ccccc35)CCCC4)[C@H](O)[C@H]2O1	84.4	11.7
CC1(C)O[C@H]2O[C@H](CNCCCCCCNc3c4c(nc5ccccc35)CCCC4)[C@H](O)[C@H]2O1	8.7	27.6
CC1(C)O[C@H]2[C@@H](O1)[C@@H](CNCCCCCCCCNc1c3c(nc4ccccc14)CCCC3)O[C@@H]1OC(C)(C)O[C@@H]12	4.8	36.7
CC1(C)O[C@H]2O[C@H](CNCCCCCCCCNc3c4c(nc5ccccc35)CCCC4)[C@H](O)[C@H]2O1	5.1	25.8
CC1(C)O[C@H]2O[C@H](CNCCCCCCCCCCNc3c4c(nc5ccccc35)CCCC4)[C@H](O)[C@H]2O1	2.2	4.93
c1ccc2c(NCCCCCCCNc3c4c(nc5ccccc35)CCCC4)c3c(nc2c1)CCCC3	1.9	9.1
CO[C@@H]1O[C@H](CNCCCCCCCCNc2c3c(nc4ccccc24)CCCC3)[C@H]2OC(C)(C)O[C@@H]12	89.9	36.9
CC1(C)O[C@H]2[C@@H](O1)[C@@H](CNCCCCCCCCCNc1c3c(nc4ccccc14)CCCC3)O[C@@H]1OC(C)(C)O[C@@H]12	7.6	26.2
CO[C@@H]1O[C@H](CNCCCCCCCCCNc2c3c(nc4ccccc24)CCCC3)[C@H]2OC(C)(C)O[C@@H]12	65.5	64.3
CC1(C)O[C@H]2O[C@H](CNCCCCCCCCCNc3c4c(nc5ccccc35)CCCC4)[C@H](O)[C@H]2O1	10.2	30.8

— ChEMBL document CHEMBL4265994, “Design, synthesis, cholinesterase inhibition and molecular modelling study of novel tacrine hybrids with carbohydrate derivatives” (Bioorg Med Chem, 2018)
